In US10031129B2, “G-protein coupled receptor polypeptides involved in sensory transduction” (The Regents of the University of California, priority 1998, dated 2018):

What was measured:
[1] = biological target: T1, mammalian γ-opiod receptor (Homo sapiens, UniProt P35372); experiment: ligand-induced changes in [Ca2+]i in control cells expressing γ-opiod/Gα15; assay type: cell-based; settings: HEK-293 control cells; dependent on Gα15; rapid onset
T1 construct: expressed in transfected cells; host or cells: HEK-293 line expressing SV40 T-antigen; CMV-γ-opiod and TK-Gα15 constructs
Text: (§1) To determine the ligand selectivity of GPCR-B4, expression in heterologous cells was used. One issue for GPCR expression in heterologous cells is determining how to couple the GPCR to a G-protein and an appropriate signaling pathway. In this example, the G-protein subunit Gα15 was used, which promiscuously couples a wide range of GPCRs to the phospholipase C-mediated signaling pathway (Offermans & Simon, J. Biol. Chem. 270:15175-15180 (1995)). Consequently, receptor activity can be effectively measured by recording ligand-induced changes in [Ca^2+]i using fluorescent Ca^2+-indicator dyes and fluorometric imaging.
(§2) To insure expression of GPCR-B4 in the plasma membrane, a variety of cell lines and expression vectors were tested. […] An HEK-293 line expressing SV40 T-antigen was co-transfected with a TK-Gα15, CMV-γ-opiod and a pEAK-10 episomal vector (Edge Biosystems) containing a EF1a-[B4-GPCR]construct. Transfection efficiencies were determined using CMV-GFP constructs.

GPCR-B4 = biological target: T2, GPCR-B4 (Rattus norvegicus, UniProt Q9Z0R7); experiment: ligand-induced changes in [Ca2+]i in HEK-293 cells expressing B4/Gα15 (fluorescent Ca2+-indicator dyes, fluorometric imaging); assay type: cell-based; settings: HEK-293 line expressing SV40 T-antigen; B4 receptor dependent
T2 construct: expressed in transfected cells; host or cells: HEK-293 line expressing SV40 T-antigen; pEAK-10 episomal vector (Edge Biosystems) with EF1a-[B4-GPCR] construct; TK-Gα15
T2 sequence (Q9Z0R7 20-843): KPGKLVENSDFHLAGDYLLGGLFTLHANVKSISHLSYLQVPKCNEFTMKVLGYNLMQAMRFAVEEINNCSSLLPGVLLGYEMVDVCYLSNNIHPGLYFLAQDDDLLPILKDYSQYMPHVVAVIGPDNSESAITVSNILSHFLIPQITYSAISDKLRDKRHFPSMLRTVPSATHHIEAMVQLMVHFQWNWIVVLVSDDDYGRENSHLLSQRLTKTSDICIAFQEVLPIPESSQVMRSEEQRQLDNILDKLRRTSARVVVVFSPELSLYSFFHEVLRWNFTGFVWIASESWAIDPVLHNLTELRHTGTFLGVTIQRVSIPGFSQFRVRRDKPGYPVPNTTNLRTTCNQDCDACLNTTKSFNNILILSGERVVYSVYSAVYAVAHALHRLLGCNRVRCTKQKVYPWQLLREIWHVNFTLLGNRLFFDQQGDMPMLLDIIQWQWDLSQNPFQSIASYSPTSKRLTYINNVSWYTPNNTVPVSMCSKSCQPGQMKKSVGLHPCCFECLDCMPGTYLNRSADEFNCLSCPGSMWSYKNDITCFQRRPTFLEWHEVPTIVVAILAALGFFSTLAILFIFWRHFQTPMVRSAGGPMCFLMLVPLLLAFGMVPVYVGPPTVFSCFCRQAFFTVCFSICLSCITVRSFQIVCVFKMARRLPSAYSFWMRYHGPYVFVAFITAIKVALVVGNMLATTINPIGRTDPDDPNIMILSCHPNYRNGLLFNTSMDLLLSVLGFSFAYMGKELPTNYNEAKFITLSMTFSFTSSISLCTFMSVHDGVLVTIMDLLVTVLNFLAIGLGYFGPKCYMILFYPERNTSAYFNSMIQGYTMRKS
Text: as §1, §2

T1 sequence (P35372 whole entry): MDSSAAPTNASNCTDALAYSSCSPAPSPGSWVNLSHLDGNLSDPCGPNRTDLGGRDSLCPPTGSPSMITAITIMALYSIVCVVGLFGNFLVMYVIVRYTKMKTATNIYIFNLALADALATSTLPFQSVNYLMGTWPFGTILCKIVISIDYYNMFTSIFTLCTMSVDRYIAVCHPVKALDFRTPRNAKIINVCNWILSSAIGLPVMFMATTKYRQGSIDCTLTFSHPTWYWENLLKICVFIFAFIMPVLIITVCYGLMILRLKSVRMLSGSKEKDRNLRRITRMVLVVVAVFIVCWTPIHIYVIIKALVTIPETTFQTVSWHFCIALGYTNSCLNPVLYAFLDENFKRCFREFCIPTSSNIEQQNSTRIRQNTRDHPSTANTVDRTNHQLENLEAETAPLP

Compound	response (change in [Ca2+]i) of control cells expressing γ-opiod/Gα15 [1]	response (change in [Ca2+]i) of cells expressing B4/Gα15 or B4/Gα15/γ-opiod (GPCR-B4)
C[C@@H](NC(=O)[C@@H](N)Cc1ccc(O)cc1)C(=O)NCC(=O)N(C)[C@@H](Cc1ccccc1)C(=O)NCCO [DAMGO]	respond robustly	–
NC(=S)Nc1ccccc1 [PTC, phenylthiocarbamide]	–	respond
